Data from patent US9730906B2, “α-derivatives of cis-monounsaturated fatty acids for use as medicines” (UNIVERSITAT DE LES ILLES BALEARS, priority 2008, dated 2017).

What was measured:
[1] = test system: A549 cells of human lung adenocarcinoma; experiment: Prevention of tumour development in nude mice injected with A549 cells; format: in vivo; settings: 400 mg/kg per day oral, 2 weeks before and one month after A549 injection, compared with fatty acids not of Formula I, p<0.05
Description: FIG. 2. Preventative effect of various fatty acids against tumour development. […] Animals received treatment before injection of tumour cells and the treatment was subsequently maintained. Animals of the control group were not treated and the volume of their tumours was taken as the reference value (100%).
To determine whether the fatty acids of the invention have applications in the prevention of the development of tumour processes, an animal cancer model was used. This model consisted of immune-deprived animals ([Crl:Nu(Ico)-Fox 1] nude mice in which non-microcytic human lung cancer cells were injected (5×10^6 A549 cells per animal). The control group (infected with cancer cells but untreated) started to develop tumours that were visible after a few days. The sizes of the tumours were measured for the first time at 10 days after implanting the tumour and measurements continued for up to 31 days after the implantation with a digital calliper. The volume of the tumours was calculated with the following equation: v=w^2×l/2 where v is the volume of the tumour, w is its width and l is the length. Preventative treatments against development of the cancer were applied. To carry out these treatments, 400 mg/kg were administered per day for 2 weeks before the injection of tumour cells. This treatment was continued for one month after the implantation of the tumour cells and the volume of the tumours in the animals was measured. Each experimental group was composed of 8 animals. Oral administration of α-derivatives of cis-monounsaturated fatty acids prevented cancer development (A549 cells of human lung adenocarcinoma) (FIG. 2). […] Therefore it was concluded that the introduction of a double bond in the cis configuration in the structure of the fatty acid is a critical factor in the prevention and treatment by fatty acids of cancer development.

[2] = test system: cyclooxygenase-2 (COX-2); experiment: Cellular concentration of COX-2 in U937 differentiated monocytes (immunoblot); format: cell-based, human; settings: 250 μM, 6 hours; compared with fatty acids not of Formula I, p<0.05
Protocol: FIG. 19B. Effect of various fatty acids in the inhibition (concentration of protein) of cyclooxygenase-2 (immunoblot of COX-2). […] Cell cultures (U937 differentiated monocytes) were treated with the fatty acids of the invention (250 μM, 6 hours).
(§1) In an additional study on the release of various proinflammatory cytokines (IL-1b, IL-6, IL-8, IL-10) and TNF-α in U937 monocytes stimulated with bacterial lipopolysaccharide (LPS), a marked reduction in the levels of these molecules was observed after treatments with OHHD at a concentration of 250 μM and 72 h incubation (Table 4). The effect of the α-derivatives of cis-monounsaturated fatty acids (250 μM, 6 h) on the activity and expression of the COX-1 and COX-2 cyclooxygenases was investigated in the same system.

[3] = target: T1, cyclooxygenases-1 (COX-1) (Homo sapiens, UniProt P23219); experiment: COX-1 activity in U937 differentiated monocytes (Cayman COX-1 inhibitor screening system); format: cell-based; settings: 250 μM, 6 hours; compared with fatty acids not of Formula I, p<0.05
T1 construct: endogenous in cells; host or cells: U937 differentiated monocytes
T1 sequence (P23219 24-599): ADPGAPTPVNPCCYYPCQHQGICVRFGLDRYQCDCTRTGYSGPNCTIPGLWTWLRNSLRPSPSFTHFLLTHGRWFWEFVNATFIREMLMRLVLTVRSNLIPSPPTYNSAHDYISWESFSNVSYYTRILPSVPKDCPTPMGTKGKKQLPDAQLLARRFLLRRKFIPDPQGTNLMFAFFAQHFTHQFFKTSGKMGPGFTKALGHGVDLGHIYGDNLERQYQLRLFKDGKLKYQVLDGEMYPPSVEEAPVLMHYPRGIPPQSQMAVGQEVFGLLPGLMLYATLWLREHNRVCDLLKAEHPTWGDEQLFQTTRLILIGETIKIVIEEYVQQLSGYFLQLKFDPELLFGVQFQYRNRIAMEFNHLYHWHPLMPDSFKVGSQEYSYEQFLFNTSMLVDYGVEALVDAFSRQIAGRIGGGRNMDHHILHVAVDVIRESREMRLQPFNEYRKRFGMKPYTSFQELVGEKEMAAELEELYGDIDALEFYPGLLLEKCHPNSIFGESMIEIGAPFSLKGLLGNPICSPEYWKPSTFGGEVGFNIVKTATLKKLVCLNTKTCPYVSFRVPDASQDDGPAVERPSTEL
Protocol: FIG. 19A. Effect of various fatty acids in the inhibition of the activity of cyclooxygenases-1 (COX-1) (Cayman COX-1 inhibitor screening system). […] Cell cultures (U937 differentiated monocytes) were treated with the fatty acids of the invention (250 μM, 6 hours).
as §1

[4] = Rat obesity induced by cafeteria diet, preventative pre-treatment (Table 3); format: in vivo, Wistar Kyoto rats; settings: 300 mg/kg oral, after two weeks on cafeteria diet; obese control 308 ± 17, lean control 280 ± 16; * lower than obese controls, ‡ indistinguishable
Protocol: (§2) In a further experiment, the effect of various molecules at a single dose (600 mg/kg) was investigated. […] In this sense, modification on the α-carbon and the double bond in cis configuration are crucial elements for producing the therapeutic effect indicated above. […] Finally, the effect of α-derivatives of cis-monounsaturated fatty acids on the prevention of obesity was investigated. For this, a model of rat obesity induced by a cafeteria diet, where the hypercaloric food increases the weight of the animals very markedly, was used. There were various experimental groups (see Table 3), each of which consisted of 6 female Wistar Kyoto rats of 250-300 g in weight. All the animals received a standard diet for 2 weeks. In addition, 2 of the groups received an oral preventative pre-treatment of vehicle and the other groups received 300 mg/kg of the fatty acids indicated below. Afterwards, one of the control groups was maintained on a standard diet (lean control) and the other was fed on a cafeteria diet (obese control). The treated animal groups were fed on the cafeteria diet. Preventative pre-treatment was maintained for all the groups. After two weeks on these diets, the lean control group had increased their body weight by an average of 16±16 g, while the obese control group had increased their body weight by an average of 43±17 g (statistically significance difference, p<0.01).
(§3) The weight of treated animals was statistically less than the weight of obese control rats and statistically indistinguishable from that of lean control rats.

[5] = Levels of cholesterol, triglycerides and glucose in rats after oral treatment; format: in vivo, rat; settings: rats, daily dose of 600 mg/kg oral; untreated controls = 100%
Protocol: FIG. 13. The four bars, from left to right respectively, show the effect of treatments with vehicle (control, first bar), OHOD at 200 mg/kg (second bar), OHOD at 400 mg/kg (third bar) and OHOD at 600 mg/kg (fourth bar) on the cholesterol levels (group of four bars to the left), triglycerides (group of four bars in the middle) and glucose (group of four bars to the right). The treatments were oral in all cases and were maintained for 30 days. The values indicated are the average obtained in 6 animals per group.
FIG. 14. Effect of treatment with vehicle (control) or with the fatty acids of the invention (600 mg/kg) on the levels of cholesterol, triglycerides and glucose. The values indicated are the average of the values obtained in 6 animals. Each group of three bars represents treatment with a different fatty acid with the left bar corresponding to cholesterol, the middle bar to triglycerides and the right bar to glucose.
Metabolic diseases form a set of pathologies characterised by the accumulation or deficit of certain molecules (cholesterol, triglycerides, glucose, etc.) in the serum or tissues. These changes are the reflection of dysfunctions that are normally associated with errors in the activity of certain enzymes or in the control of these proteins. Among the most important metabolopathies are hypercholesterolemia (elevated levels of cholesterol), hypertriglyceridemia (elevated levels of triglycerides) and diabetes (elevated levels of glucose). These pathologies have high rates of incidence, morbidity and mortality, so that treatment is a first order necessity. […] For these experiments, the dose of fatty acid indicated (0, 200, 400 and 600 mg/kg) was supplied daily via the oral route. At the end of the treatment (30 days), blood was sampled from control and treated animals (n=6) and the levels of cholesterol, triglycerides and glucose were determined using standard colorimetric methods.
as §2

[6] = Body weight of rats on cafeteria diet, no pre-treatment (Table 5); format: in vivo, rat; settings: cafeteria diet for 2 weeks, 300 mg/kg daily oral, no pre-treatment
Description: as §3

[7] = test system: SF767 human tumour cells; experiment: Growth of SF767 tumour cells in culture; format: cell-based; settings: concentration that reduces the number of cells to half
Protocol: In a second experimental series, designed to discover whether these molecules are effective in treatment of different types of tumours, the effect of OHOD at various concentrations on human cells of different types of cancer was studied. These experiments were performed as described before, except that the M220 and HT-29 cell lines were cultured in DMEM medium and the MDA-MB-231 line was incubated in Leibowitz L-15 medium supplemented with 15% foetal bovine […]. […] Where the nature of the tumour process requires, application can be topical (use on the skin of active products for the treatment of melanoma and other cutaneous abnormalities of cancerous nature), which can be considered as cosmetic treatments when attempts are made to correct aesthetic defects.

[8] = test system: hypertensive rats; experiment: Arterial pressure in hypertensive rats after 8-day treatment (Table 5); format: in vivo, rat; settings: arterial pressure, hypertensive rats, 8-day treatment, 400 mg/kg oral
[9] = test system: A549 cells; experiment: Growth/viability of A549 lung cancer cells in culture (cell count); format: cell-based, human; settings: concentration that reduces the number of cells to half
Protocol: FIG. 3A. Cancer cells (A549) were treated with various concentrations of OHOD and MOD11 to determine whether the effect was dependent on the concentration. […] These cells were treated with different concentrations (0-400 μM) of OHOD and MOD11 and the number of cells was determined by flow cytometry.
FIG. 3B. Cancer cells (A549) were treated with compounds indicated on the horizontal axis for 48 hours at 150 μM. Then, the cells were counted and their number and percent of untreated (control) represented on the vertical axis.
Also, a series of α-derivatives of cis-monounsaturated fatty acids were used to investigate their effectiveness in cancer treatment. Two types of experiment were performed. Firstly, the dependency of the anti-tumour effect on concentration was investigated. To perform these experiments, human lung cancer cells (A549) were cultivated in RPMI medium, supplemented with 10% foetal bovine […], 10 mM Hepes (pH 7.4), 2 mM glutamine, 2 g/l bicarbonate, 1 g/l glucose, 100 units/ml penicillin, 0.1 mg/ml streptomycin, 0.25 μg/ml Amphotericin B, at 37° C. and in the presence of 5% CO2. In a first experimental series, these cells were treated with various concentrations (0-400 μM) of OHOD and MOD11 and the number of cells was determined by flow cytometry (FIG. 3A). […] In a second series, the anti-tumour effectiveness on A549 lung cancer cells was investigated at a single concentration (150 μM) and a time of 48 hours (FIG. 3B). […] Obviously, among the previous molecules, some lacked both modifications on the α-carbon and the double bond in cis configuration (EO, HDO, ODO) and had no therapeutic effect. […]

Row | Compound | tumour volume (prevention of tumour development) [1] | cellular concentration of COX-2 (% of control) [2] | inhibition of COX-1 activity (% of control) [3] | Final weight [4] | % control CHO (cholesterol) [5] [% control] | % control TG (triglycerides) [5] [% control] | Body weight (g) (control = 311 g) [6] | IC50 [7] [µM] | PA (control 214 mmHg) [8] [mmHg] | IC50 [9] [µM]
1 | CCCCCCCC/C=C\CCCCCCC(N)C(=O)O (stereo not drawn) [AOD, α-Amino-cis-Δ9-octadecenoic] | more significant effect | more significant effect | more significant effect | 272 ± 15* g | – | – | – | – | – | –
2 | CCCCCCCC/C=C\CCCCCCC(F)C(=O)O (stereo not drawn) [FOD, α-Fluoro-cis-Δ9-octadecenoic] | more significant effect | more significant effect | more significant effect | 279 ± 13* g | – | – | – | – | – | –
3 | CCCCCCCC/C=C\CCCCCCC(C)C(=O)O (stereo not drawn) [MOD, α-Methyl-cis-Δ9-octadecenoic] | more significant effect | more significant effect | more significant effect | 268 ± 12* g | – | – | – | – | – | –
4 | CCCCCCCC/C=C\CCCCCCCCCCC(O)C(=O)O (stereo not drawn) [OHDE, α-Hydroxy-cis-Δ13-docosenoic] | more significant effect | more significant effect | more significant effect | 273 ± 15* g | – | – | – | – | – | –
5 | CCCCCCCC/C=C\CCCCCCCCC(O)C(=O)O (stereo not drawn) [OHEE, α-Hydroxy-cis-Δ11-eicosenoic] | more significant effect | more significant effect | more significant effect | 264 ± 11* g | – | – | – | – | – | –
6 | CCCCCC/C=C\CCCCCCCCC(O)C(=O)O (stereo not drawn) [OHOD11, α-Hydroxy-cis-Δ11-octadecenoic] | more significant effect | more significant effect | more significant effect | 269 ± 12* g | – | – | – | – | – | –
7 | CCCCCCCC/C=C\CCCCCCC(OP(=O)(OCC)OCC)C(=O)OC (stereo not shown) [OMe-DEPOD] | – | – | – | – | 63 | 45 | 293 | 43 | 175 | 66
8 | CCCCCCCC/C=C\CCCCCCC(OC)C(=O)OC (stereo not shown) [OMe-MOOD] | – | – | – | – | 77 | 69 | 296 | 128 | 143 | 149
9 | CCCCCCCC/C=C\CCCCCCC(O)C(=O)OC (stereo not shown) [OMe-OHOD] | – | – | – | – | 71 | 64 | 299 | 107 | 155 | 94
10 | CCCCCCC/C=C\CCCCCCCC(S)C(=O)O (stereo not drawn) [SHOD, α-Mercapto-cis-Δ10-octadecenoic] | more significant effect | more significant effect | more significant effect | 269 ± 16* g | – | – | – | – | – | –
